Source: patent publication US20230285374A1, “THERAPEUTIC METHODS USING VADADUSTAT” (Akebia Therapeutics, Inc., priority 2019, published 2023)

What was measured:
[1] = test system: anemic DD-CKD patients with prevalent dialysis and established ESA treatment; experiment: Phase 3 Prevalent DD-CKD (Conversion) trial, vadadustat vs darbepoetin alfa; assay type: in vivo, human; conditions: for Ferritin, mean / Hepcidin, mean / TSAT, mean: Prevalent trial
Protocol: Two randomized Phase 3, open-label, sponsor-blind, active-controlled non-inferiority (NI) trials were conducted in anemic DD-CKD patients with incident dialysis and limited ESA exposure (Correction/Conversion trial) and with prevalent dialysis and established ESA treatment (Conversion trial). The primary safety endpoint was prespecified as the time to first major adverse cardiovascular event (MACE) (all-cause mortality, non-fatal MI, or non-fatal stroke) pooled across the two trials. Primary and key secondary efficacy endpoints were mean change in Hb from baseline [BL] to wks 24-36 and to wks 40-52 between two treatment arms, respectively.
Phase 3, randomized, open-label, active-controlled study of vadadustat vs darbepoetin alfa for the maintenance treatment of anemia after conversion from ESA therapy.
Following a Screening period of up to 8 weeks (56 days), subjects who met all inclusion and none of the exclusion criteria were randomized 1:1 to vadadustat or darbepoetin alfa.
Randomization were stratified by: • Geographic region (United States [US] versus European Union [EU] versus Rest of World [ROW]) • New York Heart Association congestive heart failure (CHF) Class 0 (no CHF) or I versus II or III. • Study entry Hb (<10.0 versus ≥10.0 g/dL).
Following randomization, there were 3 periods during the study: • Conversion and Maintenance Period (Weeks 0 to 52): conversion to study medication for maintaining Hb (Weeks 0-23), primary efficacy evaluation (Weeks 24-36), and secondary efficacy evaluation (Weeks 40-52). • Long-term Treatment Period (Weeks 53 to End of Treatment [EOT]): continued study medication to assess long-term safety. • Follow-up (EOT+4 weeks): post-treatment visit (either in person or via telephone) for safety.
Inclusion Criteria: • ≥18 years of age. • Receiving chronic maintenance dialysis (either peritoneal or hemodialysis) for end-stage kidney disease for at least 12 weeks prior to Screening. • Currently maintained on ESA therapy, with a dose received within 6 weeks prior to or during Screening. • Mean screening Hb between 8.0 and 11.0 g/dL (inclusive) in the US and between 9.0 and 12.0 g/dL (inclusive) outside of the US, as determined by the average of 2 Hb values measured by the central laboratory during Screening. • Serum ferritin ≥100 ng/mL and transferrin saturation (TSAT) 20% during Screening. • Folate and vitamin B12 measurements lower limit of normal during Screening. • Understands the procedures and requirements of the study and provides written informed consent and authorization for protected health information disclosure.
Exclusion Criteria: • Anemia due to a cause other than CKD or subjects with active bleeding or recent blood loss. • History of sickle cell disease, myelodysplastic syndromes, bone marrow fibrosis, hematologic malignancy, myeloma, hemolytic anemia, thalassemia, or pure red cell aplasia. • Red blood cell (RBC) transfusion within 8 weeks prior to randomization. • Anticipated to recover adequate kidney function to no longer require dialysis. • Aspartate aminotransferase (AST)/serum glutamic oxaloacetic transaminase (SGOT), alanine aminotransferase (ALT)/serum glutamic pyruvic transaminase (SGPT), or total bilirubin >2.0×upper limit of normal (ULN) during Screening. […]

[2] = test system: stage 3, 4, or 5 CKD patients; experiment: Phase 2a clinical trials in stage 3, 4, or 5 CKD patients (iron parameters vs placebo); assay type: in vivo, human
Protocol: In certain embodiments, unsaturated iron binding capacity (UIBC) may be determined by adding serum to an alkaline buffer/reductant solution containing a known concentration of iron to saturate the available binding sites on transferrin. The Ferrozine chromogen reacts only with the Fe^2+; therefore, an iron reductant is added to insure that all iron is present in the ferrous state. The excess unbound divalent iron reacts with Ferrozine chromogen to form a magenta complex, which is measure spectrophotometrically. The unsaturated iron binding capacity (UIBC) is equal to the difference measured in the concentrations of the added iron solution and the excess unbound iron. Serum TIBC is equal to total serum iron plus UIBC and may therefore be calculated using the results of the UIBC and serum iron determinations.
In certain embodiments, serum iron may be determined using a test based on the FerroZine method without deproteinization. Specimens are analyzed on the Roche Modular Instrument utilizing Roche Diagnostics Reagents. Under acidic conditions, iron is liberated from transferrin. The detergent clarifies lipemic samples. Ascorbate reduces the released Fe3+ ions to Fe2+ ions, which then react with FerroZine to form a colored complex. The color intensity is directly proportional to the iron concentration and can be measured photometrically.

[3] = test system: subjects receiving hemodialysis, previously maintained on epoetin alfa; conditions: human, in vivo
Protocol: The primary endpoint was mean hemoglobin (Hb) change from pre-baseline average to midtrial (Weeks 7-8) and end-of trial (Weeks 15-16) and was analyzed using available data (no imputation).

Structure (SMILES): O=C(O)CNC(=O)c1ncc(-c2cccc(Cl)c2)cc1O [Compound 1, Vadadustat]
- Ferritin, mean ([1]; Baseline): 846.78 ng/mL
- Hepcidin, mean ([1]; Baseline): 193.86 ng/mL
- TSAT, mean ([1]; Baseline): 38.06%
- Ferritin, mean ([1]; Weeks 24-36): 801.93 ng/mL
- Hepcidin, mean ([1]; Weeks 24-36): 146.95 ng/mL
- TSAT, mean ([1]; Weeks 24-36): 34.77%
- Ferritin, mean ([1]; Weeks 40-52): 787.27 ng/mL
- Hepcidin, mean ([1]; Weeks 40-52): 137.41 ng/mL
- TSAT, mean ([1]; Weeks 40-52): 34.11%
- proportion of patients requiring RBC transfusions ([1]; weeks 24-36): 2.0%
- proportion of patients with an average hemoglobin value within the geography-specific target range ([1]; weeks 24-36): 49.2%
- mean (SEM) change from baseline in hemoglobin ([1]; weeks 24 to 36): 0.19 (0.032) g/dL
- mean difference between groups (vadadustat vs darbepoetin alfa) in change from baseline in hemoglobin ([1]; weeks 24 to 36): −0.17 (0.033) g/dL
- proportion of patients requiring RBC transfusions ([1]; weeks 40-52): 3.7%
- proportion of patients with an average hemoglobin value within the geography-specific target range ([1]; weeks 40-52): 44.3%
- mean change from baseline in hemoglobin ([1]; weeks 40 to 52): 0.23 (0.035) g/dL
- mean difference between groups (vadadustat vs darbepoetin alfa) in change from baseline in hemoglobin ([1]; weeks 40 to 52): −0.18 (0.035) g/dL
- serum iron levels ([2]; 6 weeks post administration): not associated with an increase in serum iron levels
- total iron binding capacity (TIBC) levels ([2]; 6 weeks post administration, compared to placebo treated patients): increase
- transferrin saturation (TSAT) ([2]; dose-related): decrease
- deaths during the study [3]: No deaths
